Measurements as given in PMC9721423, “Novel benzo chromene derivatives: design, synthesis, molecular docking, cell cycle arrest, and apoptosis induction in human acute myeloid leukemia HL-60 cells” (Journal of Enzyme Inhibition and Medicinal Chemistry, 2022).
Read-outs that look alike come from different tables or passages of the source.

Key:
Assay in all cases: cells
Parameters in all cases: species or system NCI-60 human tumour cell lines; NCI-60 five-dose growth inhibition screen, sulforhodamine B protein stain
[1] = test system: HL-60(TB); settings: Homo sapiens, HL-60, 48 h
Experimental: (§1) All the newly synthesised 28 compounds were selected for single-dose testing. NCI60 single-dose testing is performed in all 60 cell lines according to the reported assay (National Cancer Institute, https://dtp.cancer.gov/) (National Cancer Institute https://dtp.cancer.gov/discovery_development/nci-60/), compounds were dissolved in DMSO: glycerol […] and are stored in a −70 °C freezer. The prepared compounds were added at single concentration of 1 0^−5 M and the culture was incubated for 48 h. End point determinations were made with a protein binding dye, sulforhodamine B (SRB). The human tumour cell lines were derived from nine different cancer types: leukaemia, melanoma, lung, colon, central nervous system (CNS), ovarian, renal, prostate, and breast cancers. Dose–response curves for these compounds were created by plotting the percentage growth (PGs or % growth) against log10 of the corresponding concentration for every cell line. Three response parameters, GI50 (Median Growth Inhibitory Concentration), TGI (Total Growth Inhibitory Concentration), and LC50 (Median Lethal Concentration) were calculated[54] (National Cancer Institute, https://dtp.cancer.gov/discovery_development/nci-60/) (National Cancer Institute, https://dtp.cancer.gov/)[55] for compounds 5a and 6a. […] Furthermore, the average sensitivity of all cell lines towards the compound is termed as the full panel mean graph midpoints (MG-MID). The ratio obtained by dividing the full panel mean graph midpoints (MG-MID) concentration by the individual subpanel MG-MID concentrations (obtained as the average sensitivity of all cell lines of a particular subpanel towards the test compound) is considered a criterion for the compound selectivity towards the corresponding cell line. Ratios greater than 6 indicate high selectivity while ratios between 3 and 6 refer to moderate selectivity whereas compounds not meeting either of these criteria were rated non-selective[56].

[2] = test system: ACHN; settings: Homo sapiens, ACHN, 48 h
Experimental: as §1

[3] = test system: HCT-15; settings: Homo sapiens, HCT-15, 48 h
Experimental: as §1

[4] = test system: SR; settings: Homo sapiens, SR, 48 h
Experimental: as §1

[5] = test system: SK-OV-3; settings: Homo sapiens, SK-OV-3, 48 h
Experimental: as §1

[6] = test system: NCI/ADR-RES; settings: Homo sapiens, NCI/ADR-RES, 48 h
Experimental: as §1

[7] = test system: MOLT-4; settings: Homo sapiens, MOLT-4, 48 h
Experimental: as §1

[8] = test system: OVCAR-8; settings: Homo sapiens, OVCAR-8, 48 h
Experimental: as §1

[9] = test system: M14; settings: Homo sapiens, M14, 48 h
Experimental: as §1

[10] = test system: NCI-H23; settings: Homo sapiens, NCI-H23, 48 h
Experimental: as §1

[11] = test system: MALME-3M; settings: Homo sapiens, Malme-3M, 48 h
Experimental: as §1

[12] = test system: HS 578T; settings: Homo sapiens, Hs-578T, 48 h
Experimental: as §1

[13] = test system: SF-539; settings: Homo sapiens, SF-539, 48 h
Experimental: as §1

[14] = test system: A549/ATCC; settings: Homo sapiens, A549, 48 h
Experimental: as §1

[15] = test system: COLO 205; settings: Homo sapiens, COLO 205, 48 h
Experimental: as §1

[16] = test system: RXF 393; settings: Homo sapiens, RXF 393, 48 h
Experimental: as §1

[17] = test system: PC-3; settings: Homo sapiens, PC-3, 48 h
Experimental: as §1

CC(=O)NC1=C(C#N)C(c2ccccc2)c2ccc3ccccc3c2O1 (stereo not shown) [6a, N-(3-Cyano-4-phenyl-4H-benzo[h]chromen-2-yl)acetamide] was tested, and the GI50 ([1]; read-out: GI50 6a) was 290 nM, the GI50 ([2]; read-out: GI50 6a) was 550 nM and the GI50 ([3]; read-out: GI50 6a) was 510 nM. The GI50 ([4]; read-out: GI50 6a) was 470 nM, the GI50 ([5]; read-out: GI50 6a) was 490 nM and the GI50 ([6]; read-out: GI50 6a) was 300 nM. For the same compound, the GI50 ([7]; read-out: GI50 6a) was 490 nM, the GI50 ([8]; read-out: GI50 6a) was 630 nM and the GI50 ([9]; read-out: GI50 6a) was 560 nM. The GI50 ([10]; read-out: GI50 6a) was 730 nM, the GI50 ([11]; read-out: GI50 6a) was 670 nM and the GI50 ([12]; read-out: GI50 6a) was 360 nM. The GI50 ([13]; read-out: GI50 6a) was 350 nM, the GI50 ([14]; read-out: GI50 6a) was 980 nM and the GI50 ([15]; read-out: GI50 6a) was 610 nM. It also gave a GI50 ([16]; read-out: GI50 6a) of 270 nM and a GI50 ([17]; read-out: GI50 6a) of 460 nM.
N=C(NO)C1=C(N)Oc2c(ccc3ccccc23)C1c1ccccc1 (stereo not shown) [5a, 2-Amino-4-phenyl-N-hydroxy-4H-benzo[h]chromene-3-carboxamidine] gave a GI50 ([1]; read-out: GI50 5a) of 240 nM, a GI50 ([2]; read-out: GI50 5a) of 370 nM and a GI50 ([3]; read-out: GI50 5a) of 130 nM. For the same compound, the GI50 ([4]; read-out: GI50 5a) was 100 nM, the GI50 ([5]; read-out: GI50 5a) was 620 nM and the GI50 ([6]; read-out: GI50 5a) was 60 nM. For the same compound, the GI50 ([7]; read-out: GI50 5a) was 430 nM, the GI50 ([8]; read-out: GI50 5a) was 400 nM and the GI50 ([9]; read-out: GI50 5a) was 130 nM. For the same compound, the GI50 ([10]; read-out: GI50 5a) was 470 nM, the GI50 ([11]; read-out: GI50 5a) was 15600 nM and the GI50 ([12]; read-out: GI50 5a) was 230 nM. The GI50 ([13]; read-out: GI50 5a) was 210 nM, the GI50 ([14]; read-out: GI50 5a) was 420 nM and the GI50 ([15]; read-out: GI50 5a) was 460 nM. The GI50 ([16]; read-out: GI50 5a) was 200 nM and the GI50 ([17]; read-out: GI50 5a) was 230 nM.
